Like-named read-outs stand apart in the source and are kept apart here.
T1: TspO (tryptophan-rich sensory protein) (Cereibacter sphaeroides, UniProt Q9RFC8)
T1 construct: C-terminal His6 tag, expressed in E. coli BL21(DE3), purified in DDM
T1 sequence (Q9RFC8 1-158): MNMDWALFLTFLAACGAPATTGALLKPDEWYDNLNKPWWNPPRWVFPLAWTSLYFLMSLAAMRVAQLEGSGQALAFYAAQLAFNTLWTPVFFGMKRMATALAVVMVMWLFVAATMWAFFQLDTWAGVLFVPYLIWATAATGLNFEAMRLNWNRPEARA


What was measured:
[1] = target: T1, TspO (tryptophan-rich sensory protein); assay: intrinsic tryptophan fluorescence quenching titration, purified protein in DDM; type: binding
native gel or EMSA = target: the molecule itself; assay: native gel or EMSA

| Molecule | Kd [1] | other results |
| --- | --- | --- |
| CC1=C(CCC(=O)O)c2cc3[nH]c(cc4nc(cc5[nH]c(cc1n2)c(CCC(=O)O)c5C)C(C)=C4CCC(=O)O)c(CCC(=O)O)c3C [cPPIII, coproporphyrin III] | – | Kd ([1]; read-out: Kd): 17.9 ± 1.7 µM |
| C=CC1=C(C)c2cc3[nH]c(cc4nc(cc5[nH]c(cc1n2)c(C)c5CCC(=O)O)C(CCC(=O)O)=C4C)c(C)c3C=C [PPIX, protoporphyrin IX] | 8.6 ± 0.6 µM | – |
| C=CC1=C(C)C2=Cc3c(C=C)c(C)c4[n]3[Fe]([Cl])[n]3c(c(C)c(CCC(=O)O)c3=CC3=NC(=C4)C(C)=C3CCC(=O)O)=CC1=N2 [hemin] | 10 ± 2.5 µM | – |
| tryptophan-rich sensory protein (TspO) from Rhodobacter sphaeroides (natural protein, UniProt Q9RFC8 1-158, looked up, also called rsTspO; TspO-His6; source: E. coli BL21(DE3), pET29, purified in DDM (NiNTA-agarose, gel filtration)) MNMDWALFLTFLAACGAPATTGALLKPDEWYDNLNKPWWNPPRWVFPLAWTSLYFLMSLAAMRVAQLEGSGQALAFYAAQLAFNTLWTPVFFGMKRMATALAVVMVMWLFVAATMWAFFQLDTWAGVLFVPYLIWATAATGLNFEAMRLNWNRPEARA | – | stoichiometry N (native gel or EMSA): 2 |
